Test system: patients with ALK-positive NSCLC
Experiment: Phase 1 safety assessment (TRAEs by CTCAE 4.03, DLT, MTD, RP2D)
Assay type: in vivo, human
Procedure: In the dose-escalation phase, the dose was escalated sequentially from a low to a high level with a 3 + 3 dose-escalation scheme based on the modified Fibonacci method. The starting dose for conteltinib was 50 mg orally quaque die (QD). Dose escalation proceeded to the next six cohorts of 100 mg, 200 mg, 300 mg, 450 mg, 600 mg, and 800 mg QD. For each dose, there was a PK lead-in phase where a single dose was given 7 days before cycle 1 day 1. Then, each dose was taken continuously in a 28-day cycle. The first cycle was for dose-limiting toxicity (DLT) investigation. When one of three patients experienced a DLT in a dose cohort, three additional patients were enrolled in the same dose cohort to assess the dose level in a total of six patients. All patients received conteltinib until disease progression, unacceptable toxicity, or withdrawal of consent. Patients received follow-up safety assessments for 30 days (±7 days) after the last conteltinib dose.
In the dose-expansion phase, each dose was taken continuously in a 28-day cycle. At the end of each cycle, a safety evaluation was conducted. If patients met the criteria to enter the next cycle, treatment with conteltinib was continued for subsequent cycles. All patients received conteltinib until disease progression, unacceptable toxicity, or withdrawal of consent. Patients received follow-up safety assessments for 30 days (±7 days) after the last dose of conteltinib.
The safety of conteltinib was assessed in safety set (SS) which was based on the National Cancer Institute Common Terminology Criteria for Adverse Events (CTCAE) version 4.03, laboratory tests, vital signs, ECG, and clinical observations. […] Adverse events (AEs) were judged to be treatment-related or not by investigators.
DLTs were AEs occurring in the first cycle of treatment (28 days) that were attributed to conteltinib, and the criteria were grade 4 neutropenia lasting ≥ 7 days, febrile neutropenia, grade 3 thrombocytopenia, grade 3 non-hematologic toxicity, and any conteltinib-related toxicity resulting in treatment delay > 2 weeks or discontinuation of conteltinib treatment at the assigned dose level. Besides, grade 3 nausea, vomiting, or diarrhea for ≥ 3 days or grade 4 nausea, vomiting, or diarrhea of any duration was considered as a DLT. The MTD was defined as the dose of conteltinib that would be closest to but not higher than a 33% probability of a DLT.

COc1cc(N2CCC(N3CCN(C)CC3)CC2)ccc1Nc1nc2c(c(Nc3ccccc3S(=O)(=O)NC(C)C)n1)CCN2 [Conteltinib]
5 (35.7) n (%): TRAE Abdominal pain (450 mg QD (n=14), Grade 1–2) | TRAE Abdominal pain upper (450 mg QD (n=14), Grade 1–2)
4 (33.3) n (%): TRAE Hypoalbuminemia (300 mg BID (n=12), Grade 1–2) | TRAE Nausea (300 mg BID (n=12), Grade 1–2)
14 (100) n (%): Patients with any TRAE (450 mg QD (n=14), Grade 1–2)
10 (83.3) n (%): Patients with any TRAE (300 mg BID (n=12), Grade 1–2)
8 (66.7) n (%): TRAE Diarrhea (300 mg BID (n=12), Grade 1–2)
3 (100) n (%): Patients with any TRAE (300 mg QD (n=3), Grade 1–2) | TRAE Diarrhea (300 mg QD (n=3), Grade 1–2) | TRAE Weight loss (300 mg QD (n=3), Grade 1–2)
2 (16.7) n (%): TRAE Abdominal pain (300 mg BID (n=12), Grade 1–2) | TRAE Appetite decreased (300 mg BID (n=12), Grade 1–2) | TRAE Hyperuricemia (300 mg BID (n=12), Grade 1–2) | TRAE Vomiting (300 mg BID (n=12), Grade 1–2) | TRAE Weight loss (300 mg BID (n=12), Grade 1–2)
0 (0.0) n (%): TRAE Abdominal pain (200 mg QD (n=3), Grade ≥ 3) | TRAE Abdominal pain upper (200 mg QD (n=3), Grade ≥ 3) | TRAE Appetite decreased (200 mg QD (n=3), Grade ≥ 3) | TRAE Conjugated bilirubin elevated (200 mg QD (n=3), Grade ≥ 3) | TRAE Diarrhea (200 mg QD (n=3), Grade ≥ 3) | TRAE Hypercholesterolemia (200 mg QD (n=3), Grade ≥ 3) | TRAE Hyperglycemia (200 mg QD (n=3), Grade ≥ 3) | TRAE Hypertriglyceridemia (200 mg QD (n=3), Grade ≥ 3) | TRAE Hyperuricemia (200 mg QD (n=3), Grade ≥ 3) | TRAE Hypoalbuminemia (200 mg QD (n=3), Grade ≥ 3) | TRAE Nausea (200 mg QD (n=3), Grade ≥ 3) | TRAE Proteinuria (200 mg QD (n=3), Grade ≥ 3) | TRAE Serum creatinine elevated (200 mg QD (n=3), Grade ≥ 3) | TRAE Vomiting (200 mg QD (n=3), Grade ≥ 3) | TRAE Weight loss (200 mg QD (n=3), Grade ≥ 3) | TRAE γ-GGT elevated (200 mg QD (n=3), Grade ≥ 3) | TRAE Hypercholesterolemia (300 mg BID (n=12), Grade 1–2) | TRAE Hyperglycemia (300 mg BID (n=12), Grade 1–2) | TRAE ALT elevated (300 mg BID (n=12), Grade ≥ 3) | TRAE AST elevated (300 mg BID (n=12), Grade ≥ 3) | TRAE Abdominal pain (300 mg BID (n=12), Grade ≥ 3) | TRAE Abdominal pain upper (300 mg BID (n=12), Grade ≥ 3) | TRAE Appetite decreased (300 mg BID (n=12), Grade ≥ 3) | TRAE Diarrhea (300 mg BID (n=12), Grade ≥ 3) | TRAE Hypercholesterolemia (300 mg BID (n=12), Grade ≥ 3) | TRAE Hyperglycemia (300 mg BID (n=12), Grade ≥ 3) | TRAE Hypertriglyceridemia (300 mg BID (n=12), Grade ≥ 3) | TRAE Hyperuricemia (300 mg BID (n=12), Grade ≥ 3) | TRAE Hypoalbuminemia (300 mg BID (n=12), Grade ≥ 3) | TRAE Nausea (300 mg BID (n=12), Grade ≥ 3) | TRAE Proteinuria (300 mg BID (n=12), Grade ≥ 3) | TRAE Serum creatinine elevated (300 mg BID (n=12), Grade ≥ 3) | TRAE Vomiting (300 mg BID (n=12), Grade ≥ 3) | TRAE Weight loss (300 mg BID (n=12), Grade ≥ 3) | TRAE Abdominal pain (300 mg QD (n=3), Grade 1–2) | TRAE Abdominal pain upper (300 mg QD (n=3), Grade 1–2) | TRAE Appetite decreased (300 mg QD (n=3), Grade 1–2) | TRAE Conjugated bilirubin elevated (300 mg QD (n=3), Grade 1–2) | TRAE Hyperuricemia (300 mg QD (n=3), Grade 1–2) | TRAE Proteinuria (300 mg QD (n=3), Grade 1–2) | TRAE γ-GGT elevated (300 mg QD (n=3), Grade 1–2) | Patients with any TRAE (300 mg QD (n=3), Grade ≥ 3) | TRAE ALT elevated (300 mg QD (n=3), Grade ≥ 3) | TRAE AST elevated (300 mg QD (n=3), Grade ≥ 3) | TRAE Abdominal pain (300 mg QD (n=3), Grade ≥ 3) | TRAE Abdominal pain upper (300 mg QD (n=3), Grade ≥ 3) | TRAE Appetite decreased (300 mg QD (n=3), Grade ≥ 3) | TRAE Conjugated bilirubin elevated (300 mg QD (n=3), Grade ≥ 3) | TRAE Diarrhea (300 mg QD (n=3), Grade ≥ 3) | TRAE Hypercholesterolemia (300 mg QD (n=3), Grade ≥ 3) | TRAE Hyperglycemia (300 mg QD (n=3), Grade ≥ 3) | TRAE Hypertriglyceridemia (300 mg QD (n=3), Grade ≥ 3) | TRAE Hyperuricemia (300 mg QD (n=3), Grade ≥ 3) | TRAE Hypoalbuminemia (300 mg QD (n=3), Grade ≥ 3) | TRAE Nausea (300 mg QD (n=3), Grade ≥ 3) | TRAE Proteinuria (300 mg QD (n=3), Grade ≥ 3) | TRAE Serum creatinine elevated (300 mg QD (n=3), Grade ≥ 3) | TRAE Vomiting (300 mg QD (n=3), Grade ≥ 3) | TRAE Weight loss (300 mg QD (n=3), Grade ≥ 3) | TRAE γ-GGT elevated (300 mg QD (n=3), Grade ≥ 3)
9 (64.3) n (%): TRAE AST elevated (450 mg QD (n=14), Grade 1–2)
1 (33.3) n (%): TRAE AST elevated (300 mg QD (n=3), Grade 1–2) | TRAE Hypercholesterolemia (300 mg QD (n=3), Grade 1–2) | TRAE Hyperglycemia (300 mg QD (n=3), Grade 1–2) | TRAE Hypertriglyceridemia (300 mg QD (n=3), Grade 1–2) | TRAE Hypoalbuminemia (300 mg QD (n=3), Grade 1–2) | TRAE Nausea (300 mg QD (n=3), Grade 1–2) | TRAE Serum creatinine elevated (300 mg QD (n=3), Grade 1–2) | TRAE Vomiting (300 mg QD (n=3), Grade 1–2)
10 (71.4) n (%): TRAE ALT elevated (450 mg QD (n=14), Grade 1–2)
3 (25.0) n (%): TRAE ALT elevated (300 mg BID (n=12), Grade 1–2) | TRAE AST elevated (300 mg BID (n=12), Grade 1–2) | TRAE Abdominal pain upper (300 mg BID (n=12), Grade 1–2) | TRAE Proteinuria (300 mg BID (n=12), Grade 1–2) | TRAE γ-GGT elevated (300 mg BID (n=12), Grade 1–2)
2 (14.3) n (%): TRAE Appetite decreased (450 mg QD (n=14), Grade 1–2) | TRAE Conjugated bilirubin elevated (450 mg QD (n=14), Grade 1–2)
1 (8.3) n (%): TRAE Conjugated bilirubin elevated (300 mg BID (n=12), Grade 1–2) | TRAE Hypertriglyceridemia (300 mg BID (n=12), Grade 1–2) | Patients with any TRAE (300 mg BID (n=12), Grade ≥ 3) | TRAE Conjugated bilirubin elevated (300 mg BID (n=12), Grade ≥ 3) | TRAE γ-GGT elevated (300 mg BID (n=12), Grade ≥ 3)
5 (41.7) n (%): TRAE Serum creatinine elevated (300 mg BID (n=12), Grade 1–2)
13 (92.9) n (%): TRAE Diarrhea (450 mg QD (n=14), Grade 1–2)
